In patent US8609719B2, “Propargylated aminoindans, processes for preparation, and uses thereof” (priority 2006, dated 2013):
Where a name gives a salt, the structure may show the parent alone. Read-outs that look alike come from different tables or passages of the source.

Legend:
[1] = Pharmacokinetic analysis of ladostigil and metabolites in Alzheimer's disease patients; conditions: human, in vivo, 100 mg; for Cmax / AUC / AUC(0-t): after ladostigil tartrate 100 mg twice daily; for concentration at 12 h: mean concentration at pre-dose, 12 hours after the previous dose of ladostigil tartrate; for AUC: AUC (M)
MAO-A = target: T1, MAO-A (Rattus norvegicus, UniProt P21396); assay: MAO-A inhibition in rat organs after chronic P.O. administration; type: in vivo; conditions: po, 7 days, 2 hours after last dose; for inhibition at 37.5 µmol/kg: 37.5 μmol/kg P.O. daily; for inhibition at 75 µmol/kg: 75 μmol/kg P.O. daily; for inhibition at 150 µmol/kg: 150 μmol/kg P.O. daily
T1 construct: from tissue; host or cells: brain, liver and intestine (duodenum) of dosed rats
T1 sequence (P21396 1-526): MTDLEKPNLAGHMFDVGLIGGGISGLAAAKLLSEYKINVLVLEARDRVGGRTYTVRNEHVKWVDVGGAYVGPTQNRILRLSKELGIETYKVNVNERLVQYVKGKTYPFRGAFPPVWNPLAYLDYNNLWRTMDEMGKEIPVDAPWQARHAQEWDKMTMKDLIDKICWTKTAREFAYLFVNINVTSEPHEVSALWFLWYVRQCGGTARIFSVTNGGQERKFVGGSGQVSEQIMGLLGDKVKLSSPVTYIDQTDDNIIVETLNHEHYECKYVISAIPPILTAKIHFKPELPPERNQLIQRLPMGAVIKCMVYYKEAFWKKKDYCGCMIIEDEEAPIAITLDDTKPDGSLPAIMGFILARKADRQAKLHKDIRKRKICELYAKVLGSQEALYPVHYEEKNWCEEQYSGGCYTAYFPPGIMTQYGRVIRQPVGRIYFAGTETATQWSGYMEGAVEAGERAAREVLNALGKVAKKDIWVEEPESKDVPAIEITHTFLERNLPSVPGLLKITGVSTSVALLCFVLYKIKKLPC
Experimental: (§1) 30 rats were separated randomly into 5 testing groups of 6 rats each. Group 1 was the control group to which no drug was administered. Ethyl-hydroxymethyl-carbamic acid 3-R-(prop-2-ynylamino)-indan-5-yl ester fumarate (2:1) was administered to groups 2, 3, 4 in dosages of 150, 75, and 37.5 μmol/kg respectively, daily, perorally (“P.O.”) for seven consecutive days. Water was used as a vehicle.
(§2) Rats were sacrificed, out of sight of the other rats, 2 hours after the last administration. Brains were removed into Petri dishes on ice, the cerebellums were […], and the brains cut into halves for analysis. Livers and intestines were removed for MAO determination. Organs were homogenated for enzyme inhibition analysis.
(§3) The MAO inhibition after administration of ethyl-hydroxymethyl-carbamic acid 3-R-(prop-2-ynylamino)-indan-5-yl ester fumarate (2:1) in various organs is listed in Table 4 calculated in percent relative to the control group.

MAO = MAO inhibition in rat organs after chronic administration, overall conclusion; type: in vivo; conditions: rats, P.O. daily for seven days
Experimental: as §1, §2, §3

Recombinant human AChE = target: T2, Recombinant human AChE (Homo sapiens, UniProt P22303); assay: Inhibition of acetylcholinesterase activity in vitro (Ellman, stopped time assay); type: biochemical; set-up: ki (bimolecular rate constant): unit not given here
T2 construct: purchased Sigma-Aldrich Israel C-1682
T2 sequence (P22303 32-614): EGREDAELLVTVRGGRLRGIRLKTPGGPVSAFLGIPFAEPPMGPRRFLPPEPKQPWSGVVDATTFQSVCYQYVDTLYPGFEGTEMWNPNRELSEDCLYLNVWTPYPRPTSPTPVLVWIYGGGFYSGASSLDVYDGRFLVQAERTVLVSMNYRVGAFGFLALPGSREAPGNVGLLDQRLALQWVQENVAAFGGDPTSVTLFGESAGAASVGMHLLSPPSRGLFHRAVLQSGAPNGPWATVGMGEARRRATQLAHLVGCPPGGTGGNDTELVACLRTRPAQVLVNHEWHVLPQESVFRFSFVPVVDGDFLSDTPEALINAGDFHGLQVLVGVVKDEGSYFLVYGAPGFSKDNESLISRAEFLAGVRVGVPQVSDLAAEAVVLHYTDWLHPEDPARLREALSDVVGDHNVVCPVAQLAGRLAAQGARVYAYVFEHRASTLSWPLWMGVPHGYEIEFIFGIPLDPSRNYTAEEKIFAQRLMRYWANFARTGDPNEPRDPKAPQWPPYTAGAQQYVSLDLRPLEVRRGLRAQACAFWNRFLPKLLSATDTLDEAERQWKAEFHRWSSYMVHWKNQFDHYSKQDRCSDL
Experimental: Recombinant human AChE (C-1682), acetylthiocholine iodide (AcTh, A5771), bovine serum albumin (BSA, A-2153), and 5,5′-dithiobis(2-nitrobenzoic acid) (DTNB, D8130) were obtained from Sigma-Aldrich Israel. […] AChE was dissolved in phosphate buffer pH 8.0 containing 0.01% sodium azide NaAz and 1 mM EDTA and diluted to give a concentration of 15 units/ml. This solution was divided into aliquots of 0.5 ml, which were stored at −70° C. until use.
The inhibitory activity against AChE was determined by the method of Ellmann et al. (Biochemical Pharmacology, 1961 (7) 88-95) using AcTh as a substrate. To characterize the carbamoylation step, a traditional stopped time assay was performed, in which AChE was incubated at 37° C. with a minimum of 5 different concentrations of inhibitor in the assay buffer, and aliquots were transferred to an ELISA multiscan microplate reader (Labsystems) at various times for the determination of residual AChE activity, with Ascent PC software. The rate of reaction was measured at 412λ at 37° C. in 0.2 ml wells containing AChE 0.023 units per ml, DTNB 0.4-0.5 mM, AcTh 0.50 or 1 mM and BSA (0.05%) in 50 mM phosphate buffer as described above. Measurements were made every 5 min for up to 5 hours.
The inhibition of AChE by carbamates involves the formation of a reversible complex (EOH•CX), followed by carbamoylation of the enzyme to form (EOC) and a leaving group (HX). The carbamoylated enzyme is then hydrolyzed by water to regenerate the free enzyme (EOH).
The formation of the reversible complex is represented by the equilibrium constant: KD. For the carbamoylation phase of the inhibition process the unimolecular rate constant is represented by kmax, and the bimolecular rate constant by ki.

[2] = read-out: Brain MAO-A inhibition relative to control
[3] = read-out: Duodenum MAO-A inhibition relative to control
[4] = read-out: Liver MAO-A inhibition relative to control

C#CCN[C@@H]1CCc2ccc(OC(=O)N(CC)CO)cc21 [R-HCPAI, Ethyl-hydroxymethyl-carbamic acid 3-R-(prop-2-ynylamino)-indan-5-yl ester fumarate (2:1)]
half-life ([1]; both): 1.03 h
Cmax ([1]; both, Cmax (M), mean, mean of patients, maintenance analysis Week 4): 3.63e-06 M
Cmax ([1]; both, Cmax (T), mean, mean of patients, termination analysis Week 9): 3.3e-06 M
concentration at 12 h ([1]; both, Cmin (M), mean of patients, maintenance analysis Week 4): 2.32e-08 M
concentration at 12 h ([1]; both, Cmin (T), mean of patients, termination analysis Week 9): 1.37e-08 M
AUC ([1]; Patient 1, maintenance analysis Week 4): 1660 ng·h/mL
AUC ([1]; Patient 2, maintenance analysis Week 4): 600 ng·h/mL
AUC ([1]; Patient 3, maintenance analysis Week 4): 2290 ng·h/mL
AUC ([1]; Patient 4, maintenance analysis Week 4): 2150 ng·h/mL
AUC ([1]; Patient 5, maintenance analysis Week 4): 1700 ng·h/mL
AUC ([1]; Patient 6, maintenance analysis Week 4): 1890 ng·h/mL
AUC ([1]; Patient 7, maintenance analysis Week 4): 519 ng·h/mL
AUC ([1]; Patient 8, maintenance analysis Week 4): 1510 ng·h/mL
AUC(0-t) ([1]; Patient 1, termination analysis Week 9): 1300 ng·h/mL
AUC(0-t) ([1]; Patient 2, termination analysis Week 9): 3100 ng·h/mL
AUC(0-t) ([1]; Patient 3, termination analysis Week 9): 2520 ng·h/mL
AUC(0-t) ([1]; Patient 4, termination analysis Week 9): 1740 ng·h/mL
AUC(0-t) ([1]; Patient 5, termination analysis Week 9): 1650 ng·h/mL
AUC(0-t) ([1]; Patient 6, termination analysis Week 9): 2400 ng·h/mL
AUC(0-t) ([1]; Patient 7, termination analysis Week 9): 1040 ng·h/mL
AUC(0-t) ([1]; Patient 8, termination analysis Week 9): 1340 ng·h/mL
Cmax ([1]; Cmax (M), Patient 1, maintenance analysis Week 4): 3.6e-06 M
Cmax ([1]; Cmax (M), Patient 2, maintenance analysis Week 4): 1.5e-06 M
Cmax ([1]; Cmax (M), Patient 3, maintenance analysis Week 4): 3.7e-06 M
Cmax ([1]; Cmax (M), Patient 4, maintenance analysis Week 4): 7e-06 M
Cmax ([1]; Cmax (M), Patient 5, maintenance analysis Week 4): 4.7e-06 M
Cmax ([1]; Cmax (M), Patient 6, maintenance analysis Week 4): 4e-06 M
Cmax ([1]; Cmax (M), Patient 7, maintenance analysis Week 4): 1.2e-06 M
Cmax ([1]; Cmax (M), Patient 8, maintenance analysis Week 4): 3.3e-06 M
Cmax ([1]; Cmax (T), Patient 1, termination analysis Week 9): 3.2e-06 M
Cmax ([1]; Cmax (T), Patient 2, termination analysis Week 9): 3.9e-06 M
Cmax ([1]; Cmax (T), Patient 3, termination analysis Week 9): 3.9e-06 M
Cmax ([1]; Cmax (T), Patient 4, termination analysis Week 9): 3.9e-06 M
Cmax ([1]; Cmax (T), Patient 5, termination analysis Week 9): 3.7e-06 M
Cmax ([1]; Cmax (T), Patient 6, termination analysis Week 9): 3.2e-06 M
Cmax ([1]; Cmax (T), Patient 7, termination analysis Week 9): 2.1e-06 M
Cmax ([1]; Cmax (T), Patient 8, termination analysis Week 9): 2.6e-06 M
inhibition at 37.5 µmol/kg (MAO-A; [2]): 8%
inhibition at 37.5 µmol/kg (MAO-A; [3]): -25%
inhibition at 37.5 µmol/kg (MAO-A; [4]): 3%
inhibition at 75 µmol/kg (MAO-A; [2]): 41%
inhibition at 75 µmol/kg (MAO-A; [3]): 18%
inhibition at 75 µmol/kg (MAO-A; [4]): 9%
inhibition at 150 µmol/kg (MAO-A; [2]): 72%
inhibition at 150 µmol/kg (MAO-A; [3]): 21%
inhibition at 150 µmol/kg (MAO-A; [4]): 16%
organ selectivity of MAO inhibition, in words (MAO): brain-selective MAO inhibition
inhibition of acetylcholinesterase, in words (Recombinant human AChE): weak inhibitor
ki (bimolecular rate constant) (Recombinant human AChE; AChE, 37° C.): 0.106 ± 0.008
kmax (unimolecular carbamoylation rate constant) (Recombinant human AChE; AChE, 37° C.): 0.033 min⁻¹
Kd (Recombinant human AChE; AChE, 37° C., read-out: KD (equilibrium constant of reversible complex)): 306 µM
